In brackets after ≈: the same amount, converted by molar mass. Read-outs that look alike come from different tables or passages of the source.
How the values were obtained:
[1] = Plasma and pulmonary (ELF, AM) pharmacokinetics after intravenous gepotidacin in healthy adult subjects; assay type: in vivo, human
Description: (§1) Gepotidacin exposures were assessed in plasma and other matrices, such as urine, saliva, epithelial lining fluid (ELF), Alveolar Macrophages (AM), cervix, rectum and pharynx, as follows: • 1. Plasma, Epithelial Lining Fluid (ELF) and Alveolar Macrophage (AM) samples: A study to evaluate plasma and pulmonary pharmacokinetics (PK) following intravenous administration of gepotidacin in healthy adult subjects was conducted (see M Hossain, EF Dumont. Population Pharmacokinetic Modeling of Plasma and Epithelial Lining Fluid Data for a Novel Antimicrobial Compound. 54th Annual Interscience Conference on Antimicrobial Agents and Chemotherapy Meeting, 5-9 September 2014, Washington, D.C., USA). • 2. Saliva, Urine and plasma samples: • a. A single-dose study to assess the PK of oral gepotidacin in male and female adult participants with varying degrees of hepatic impairment and in matched control participants with normal hepatic function (J. Hands et al. Pharmacokinetics of Gepotidacin in Subjects with Hepatic Impairment. ID Week, 2-6 October 2019, Washington DC, USA) • b. A single-dose study to assess the PK of gepotidacin in adult subjects with varying degrees of renal impairment and in matched control subjects with normal renal function • 3. Urine, plasma, cervix, rectum and pharynx swabs: In a Phase 2a, single-center, single-arm, open-label study in the Unites States from July 2018 to January 2019 (see Overcash et al., Open Forum Infectious Diseases, Volume 6, Issue Supplement 2, October 2019, Page S539, https://doi.org/10.1093/ofid/ofz360.1343), a total of 22 female participants with uncomplicated Urinary Tract Infection (uUTI) were enrolled and evaluated for pharmacokinetics (PK), safety, and clinical efficacy. Participants were confined to the clinic from baseline (Days -1 to 1 predose) through on-therapy (Days 1 to 5) and returned as outpatients for test-of-cure (TOC; Days 10 to 13) and follow-up (Day 28t3). Participants received oral gepotidacin 1,500 mg twice daily (BID) for 5 days. […] The majority of participants were white, age ranged from 19 to 60 years, and body mass index ranged from 20.9 to 37.9 kg/m^2. The number of past uUTI episodes ranged from 0 to 10 over the past 12 months across participants; the majority of participants reported ≤2 episodes. The mean total clinical symptom score at baseline was 7.9 (range: 4 to 12). All participants reported frequency and urgency, and all but 1 participant (5%) reported dysuria. Gepotidacin exposures in urine, cervix, rectum and pharynx were assessed.
Plasma, Epithelial Lining Fluid (ELF) and Alveolar Macrophage (AM) PK were assessed following a single IV infusion of 1000 mg gepotidacin over 2 hours. […] Concentrations in AM and ELF changed in a similar manner as in plasma over the 12-hour sampling period.

[2] = Single-dose saliva, urine and plasma PK of oral gepotidacin in hepatic impairment and matched controls; assay type: in vivo, human; settings: for urinary exposure (AUC[0-48]) relative to matched healthy controls: 1500 mg orally
Description: Gepotidacin exposures were assessed in plasma and other matrices, such as urine, saliva, epithelial lining fluid (ELF), Alveolar Macrophages (AM), cervix, rectum and pharynx, as follows: • 1. Plasma, Epithelial Lining Fluid (ELF) and Alveolar Macrophage (AM) samples: A study to evaluate plasma and pulmonary pharmacokinetics (PK) following intravenous administration of gepotidacin in healthy adult subjects was conducted (see M Hossain, EF Dumont. Population Pharmacokinetic Modeling of Plasma and Epithelial Lining Fluid Data for a Novel Antimicrobial Compound. 54th Annual Interscience Conference on Antimicrobial Agents and Chemotherapy Meeting, 5-9 September 2014, Washington, D.C., USA). • 2. Saliva, Urine and plasma samples: • a. A single-dose study to assess the PK of oral gepotidacin in male and female adult participants with varying degrees of hepatic impairment and in matched control participants with normal hepatic function (J. Hands et al. Pharmacokinetics of Gepotidacin in Subjects with Hepatic Impairment. ID Week, 2-6 October 2019, Washington DC, USA) • b. A single-dose study to assess the PK of gepotidacin in adult subjects with varying degrees of renal impairment and in matched control subjects with normal renal function • 3. Urine, plasma, cervix, rectum and pharynx swabs: In a Phase 2a, single-center, single-arm, open-label study in the Unites States from July 2018 to January 2019 (see Overcash et al., Open Forum Infectious Diseases, Volume 6, Issue Supplement 2, October 2019, Page S539, https://doi.org/10.1093/ofid/ofz360.1343), a total of 22 female participants with uncomplicated Urinary Tract Infection (uUTI) were enrolled and evaluated for pharmacokinetics (PK), safety, and clinical efficacy. […] Gepotidacin exposures in urine, cervix, rectum and pharynx were assessed.
(§2) Saliva, Urine and Plasma concentrations were determined after administration of gepotidacin 750 mg IV (healthy and renally impaired subjects) and 1500 mg orally (healthy and hepatically impaired subjects, as well as uUTI patients). […]

[3] = Single-dose saliva, urine and plasma PK of gepotidacin in renal impairment and matched controls; assay type: in vivo, human
Description: as §1, §2

[4] = Phase 2a study in female participants with uUTI: urine, plasma, cervical, rectal and pharyngeal swab PK and safety; assay type: in vivo, human
Description: as §1
Plasma, cervix, rectum and pharynx swabs were collected after administration of gepotidacin 1500 mg BID to uUTI patients. […] TABLE 1 Summary of gepotidacin cervical, rectal, pharyngeal, and free plasma concentration time data (µg/ml) (pharmacokinetic population)

NG clinical isolate [5] = assay: microbe, parasite or virus in culture; assay type: cell-based; settings: Neisseria gonorrhoeae
NG clinical isolate [6] = assay: MIC determination in fastidious broth (FB) medium modified to lack agarose; assay type: cell-based; settings: Neisseria gonorrhoeae, read-out: gepotidacin broth MIC
Description: The NG clinical isolate evaluated was known to be ciprofloxacin-resistant (minimum inhibitory concentration [MIC]= 2 mg/L), susceptible to ceftriaxone (MIC = 0.004 mg/L), and with a gepotidacin agar/broth MIC of 1/0.5 mg/L. The isolate was collected during the Phase 2 clinical study mentioned above, and contained the mutation, ParC D86N.
In order to evaluate the MIC of each challenge compound under the liquid conditions utilized in the HFIM, MIC values were determined using fastidious broth (FB) medium modified to lack agarose.

NG isolate = assay type: cell-based, Neisseria gonorrhoeae
Description: The results were discussed in VanScoy BD et al., A Hollow-Fiber Infection Model to Evaluate the Prevention of On- Therapy Resistance of Neisseria gonorrhoeae to Gepotidacin.
10 mL of an initial bacterial density of 10^6 colony forming units (CFU)/mL was inoculated into the hollow-fiber cartridge (Fibercell Systems, Frederick, MD), utilizing modified FB medium.
Samples were collected for observation of simulated pharmacokinetic profiles and enumeration of bacterial burden over the study duration. All bacterial samples were plated on drug-free and agar supplemented with 2 x the agar MIC value of each respective challenge compound.

[7] = Safety and pharmacokinetics in healthy adults and adolescents; assay type: in vivo, human
Description: Healthy adults and adolescents within the age ranges of 19-64 and 12-17 years old, respectively, participated in the study.
In Part 1 of the study, gepotidacin was administered with food to healthy adults (≥ 18 years) in period 1 (1500 mg oral single dose), followed by period 2 (3000 mg x 2 oral doses Q12h) and period 3 (3000 mg x 2 oral doses Q6h).
In Part 2 of the study, gepotidacin was administered with food to adolescents (12 to < 18 years) at the same dose regimens as period 1 (1500 mg oral single dose) and period 3 (3000 mg x 2 oral doses Q6h).

urogenital NG = settings: cited from earlier work
urogenital NG isolates = settings: cited from earlier work
[8] = single IV infusion of 1000 mg over 2 hours, AM versus ELF
[9] = 1500 mg BID, Day 4, 2 hours postdose
[10] = Period 1, 1500 mg oral single dose

O=c1ccc2ncc(=O)n3c2n1C[C@H]3CN1CCC(NCc2cc3c(cn2)OCCC3)CC1 [gepotidacin, (2R)-2-({4-[(3,4-Dihydro-2H-pyrano[2,3-c]pyridin-6-ylmethyl)amino]-1-piperidinyl}methyl)-1,2-dihydro-3H,8H-2a,5,8a-triazaacenaphthylene-3,8-dione]
Kp ([1]; human, alveolar macrophages / free plasma, single IV infusion of 1000 mg over 2 hours, read-out: AUC(0-12) ratio of AM to free plasma): 178 | Kp ([1]; human, epithelial lining fluid / free plasma, single IV infusion of 1000 mg over 2 hours, read-out: AUC(0-12) ratio of ELF to free plasma): 1.84 | fraction unbound ([1]; human, plasma, read-out: gepotidacin free fraction): 0.67 | AM exposure AUC(0-12), higher than in ELF [1, 8]: ~97 fold | AM exposure Cmax, higher than in ELF [1, 8]: approximately 120 fold | Kp ([2]; human, saliva / unbound plasma, stated across the renal and hepatic impairment studies, read-out: ratio of saliva AUC to unbound plasma AUC (RAUC)): ≥ 0.75 | urinary exposure (AUC[0-48]) relative to matched healthy controls ([2]; moderate hepatic impairment): approximately 3.2 fold | urinary exposure (AUC[0-48]) relative to matched healthy controls ([2]; severe hepatic impairment): ~3.9 fold | gepotidacin dose excreted in the urine ([3]; ESRD subjects on hemodialysis): Less than 2% | gepotidacin dose removed in the urine (fe%) ([3]; End-Stage Renal Disease (ESRD) subjects not on hemodialysis): 7.9% | gepotidacin dose removed in the urine (fe%) ([3]; moderate renal impairment subjects): 22.1% | gepotidacin dose removed in the urine (fe%) ([3]; normal renal function subjects): 37.4% | Cervical concentration, Maximum [4, 9]: 4.25 µg/mL | Cervical concentration, Mean [4, 9]: 1.03 µg/mL | Cervical concentration, Minimum [4, 9]: 0.0190 µg/mL | Free plasma concentration, Maximum [4, 9]: 7500 ng/mL | Free plasma concentration, Mean [4, 9]: 3940 ng/mL | Free plasma concentration, Minimum [4, 9]: 938 ng/mL | Pharyngeal concentration, Maximum [4, 9]: 0.527 µg/mL | Pharyngeal concentration, Mean [4, 9]: 0.140 µg/mL | Pharyngeal concentration, Minimum [4, 9]: 0.0118 µg/mL | Rectal concentration, Maximum [4, 9]: 90.90 µg/mL | Rectal concentration, Mean [4, 9]: 12.3 µg/mL | Rectal concentration, Minimum [4, 9]: 0.0989 µg/mL | Cervical concentration, Maximum ([4]; 1500 mg BID, Day 4, Predose): 5.94 µg/mL | Cervical concentration, Mean ([4]; 1500 mg BID, Day 4, Predose): 1.30 µg/mL | Cervical concentration, Minimum ([4]; 1500 mg BID, Day 4, Predose): 0.0601 µg/mL | Free plasma concentration, Maximum ([4]; 1500 mg BID, Day 4, Predose): 1330 ng/mL | Free plasma concentration, Mean ([4]; 1500 mg BID, Day 4, Predose): 618 ng/mL | Free plasma concentration, Minimum ([4]; 1500 mg BID, Day 4, Predose): 308 ng/mL | Pharyngeal concentration, Maximum ([4]; 1500 mg BID, Day 4, Predose): 0.165 µg/mL | Pharyngeal concentration, Mean ([4]; 1500 mg BID, Day 4, Predose): 0.0330 µg/mL | Pharyngeal concentration, Minimum ([4]; 1500 mg BID, Day 4, Predose): 0.00275 µg/mL | Rectal concentration, Maximum ([4]; 1500 mg BID, Day 4, Predose): 36.30 µg/mL | Rectal concentration, Mean ([4]; 1500 mg BID, Day 4, Predose): 6.04 µg/mL | Rectal concentration, Minimum ([4]; 1500 mg BID, Day 4, Predose): 0.0678 µg/mL | discontinuations due to adverse events (AEs) ([4]; oral 1,500 mg BID for 5 days, uUTI participants): no discontinuations due to adverse events | urine Ctau exposures ([4]; uUTI patients, 1500 mg BID, from Day 3 onwards): 322 to 352 µg/mL | minimum gepotidacin urine concentrations ([4]; uUTI patients, remained above MIC over the 12-hour dosing interval): > 4 µg/mL | MIC (NG clinical isolate [5]; read-out: gepotidacin MIC): 1 µg/mL (≈ 2.23 µM) | MIC (NG clinical isolate [5]; read-out: gepotidacin agar MIC): 1 µg/mL (≈ 2.23 µM) | MIC (NG clinical isolate [6]): 0.5 µg/mL (≈ 1.11 µM) | doses preventing amplification of resistance within the system (NG isolate; gepotidacin-resistant subpopulation on Day 7): ≥ 4.5 g | total daily doses that prevented resistance amplification (NG isolate; including 2 doses of 3g administered 8 or 12 hours apart): ≥ 4500 mg | doses sterilizing the system (NG isolate; over the seven-day period, simulated single oral doses 0.75 to 12 g): ≥ 4.5 g | tolerability ([7]; 1500 mg oral single dose, adults and adolescents, few mild GI AEs): generally well tolerated | maximum concentration (Cmax), adolescents compared to adults [7, 10]: similar | median area under the curve (AUC), adolescents compared to adults [7, 10]: slightly higher | AUC following the second dose, adolescents versus adults ([7]; Period 3, Q6h regimen): higher | Cmax following the second dose, adolescents versus adults ([7]; Period 3, Q6h regimen): similar | subjects above the value of potential clinical concern, observed ([7]; adolescents Q6h, 3000 mg x 2 oral doses): 58% | subjects above the value of potential clinical concern, observed ([7]; adults Q6h, 3000 mg x 2 oral doses): 46% | subjects above the value of potential clinical concern, observed ([7]; adults Q12h, 3000 mg x 2 oral doses): 15% | AUC0-t exposures following the first dose, Q12 versus Q6h ([7]; adults, 3000 mg dose level): similar | accumulation ratios, Q6h as compared to Q12h ([7]; adults, 3000 mg x 2 oral doses): Higher | safety issues related to QT or AchE-I ([7]; in vivo): No observed safety issues | participants who failed therapy at the urogenital body site (urogenital NG; Phase II study, total): 3 | microbiological successes (bacterial eradication) (urogenital NG; of the 8 participants with D86N-positive baseline urogenital NG isolates): 5 | efficacy (bacterial eradication) against urogenital infection caused by NG (urogenital NG; single oral dose 1.5g (1500 mg)): ≥ 95% | efficacy (bacterial eradication) against urogenital infection caused by NG (urogenital NG; single oral dose 3g (3000 mg)): ≥ 95% | baseline gepotidacin MIC (urogenital NG isolates; 2 microbiological successes with D86N-positive baseline organisms): 1 µg/mL | TOC gepotidacin MICs (urogenital NG isolates; 2 posttreatment isolates that had become resistant): ≥ 32 µg/mL

CO/N=C(\C(=O)N[C@@H]1C(=O)N2C(C(=O)O)=C(CSc3nc(=O)c(=O)[nH]n3C)CS[C@H]12)c1csc(N)n1 [ceftriaxone, reference compound]
MIC (NG clinical isolate [5]; read-out: minimum inhibitory concentration [MIC]): 0.004 µg/mL (≈ 0.00721 µM) | performance of controls in the hollow fibre infection model (NG isolate; isolate resistant to ciprofloxacin and susceptible to ceftriaxone, simulated 0.5 g oral ciprofloxacin, 0.25 g IM ceftriaxone): performed as expected
